Measured values: patent US4226865A, “Method of treating depression” (Hoffmann-La Roche Inc., priority 1976, dated 1980)

Tests used:
monoamine oxidase (MAO) = experiment: MAO inhibiting activity in liver homogenates of rats one hour after p.o. administration; assay type: in vivo; conditions: p.o. in the rat; MAO activity measured in liver homogenates one hour after administration; 60 min
Method: (§1) Thus, the thiobenzamides of formula I to be tested were administered p.o. to rats. One hour after the administration, the rats were killed and the MAO inhibiting activity in the liver homogenates was measured according to the method in Biochem. Pharmacol. 12, pp. 1439-1441 (1963). The thus determined activity of representative thiobenzamides of formula I as well as their toxicity is evident from the ED50 values (μmol/kg, p.o. in the rat) or LD50 values (mg/kg, p.o. in the mouse) listed in the Table which follows: […]

[1] = Toxicity (LD50), p.o. in the mouse; conditions: in vivo, po
Method: as §1

Row | SMILES | ED50 (MAO inhibiting activity) (monoamine oxidase (MAO)) [µmol/kg] | LD50 [1] [mg/kg]
1 | S=C(NCCN1CCOCC1)c1ccc(Br)cc1 [p-bromo-N-(2-morpholinoethyl)-thiobenzamide] | 2 | 1250 to 2500
2 | S=C(NCCN1CCOCC1)c1ccc(Cl)cc1 [p-chloro-N-(2-morpholinoethyl)thiobenzamide] | 2 | 1250 to 2500
3 | CC(C)(C)c1ccc(C(=S)NCCN2CCOCC2)cc1 [p-t-butyl-N-(2-morpholinoethyl)-thiobenzamide] | 10 | > 5000
